{"source": "ChEMBL document CHEMBL1159315", "about": "“Constituents of the bark and twigs of Artocarpus dadah with cyclooxygenase inhibitory activity” (J Nat Prod, 2002)", "key": {"[1]": {"target": "Prostaglandin G/H synthase 1 (Homo sapiens, UniProt P23219)", "sequence (P23219 whole entry)": "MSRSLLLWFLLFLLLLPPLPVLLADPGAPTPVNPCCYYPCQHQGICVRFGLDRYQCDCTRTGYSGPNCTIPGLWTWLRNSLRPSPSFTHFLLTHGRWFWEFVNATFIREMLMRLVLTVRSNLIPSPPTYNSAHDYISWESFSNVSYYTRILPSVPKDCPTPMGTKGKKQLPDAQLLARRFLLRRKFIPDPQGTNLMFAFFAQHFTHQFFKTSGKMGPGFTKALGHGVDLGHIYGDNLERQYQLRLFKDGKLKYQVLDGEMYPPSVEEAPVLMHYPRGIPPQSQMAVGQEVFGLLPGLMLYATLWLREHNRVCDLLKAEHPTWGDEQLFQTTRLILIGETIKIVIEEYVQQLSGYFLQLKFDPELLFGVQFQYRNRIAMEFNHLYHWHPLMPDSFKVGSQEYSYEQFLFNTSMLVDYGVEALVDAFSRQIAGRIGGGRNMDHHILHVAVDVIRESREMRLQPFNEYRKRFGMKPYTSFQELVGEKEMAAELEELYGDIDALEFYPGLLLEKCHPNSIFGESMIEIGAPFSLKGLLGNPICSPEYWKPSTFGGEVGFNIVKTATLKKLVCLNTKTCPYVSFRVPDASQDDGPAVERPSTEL"}, "[2]": {"target": "T1, Prostaglandin G/H synthase 2 (Homo sapiens, UniProt P35354)", "T1 sequence (P35354 whole entry)": "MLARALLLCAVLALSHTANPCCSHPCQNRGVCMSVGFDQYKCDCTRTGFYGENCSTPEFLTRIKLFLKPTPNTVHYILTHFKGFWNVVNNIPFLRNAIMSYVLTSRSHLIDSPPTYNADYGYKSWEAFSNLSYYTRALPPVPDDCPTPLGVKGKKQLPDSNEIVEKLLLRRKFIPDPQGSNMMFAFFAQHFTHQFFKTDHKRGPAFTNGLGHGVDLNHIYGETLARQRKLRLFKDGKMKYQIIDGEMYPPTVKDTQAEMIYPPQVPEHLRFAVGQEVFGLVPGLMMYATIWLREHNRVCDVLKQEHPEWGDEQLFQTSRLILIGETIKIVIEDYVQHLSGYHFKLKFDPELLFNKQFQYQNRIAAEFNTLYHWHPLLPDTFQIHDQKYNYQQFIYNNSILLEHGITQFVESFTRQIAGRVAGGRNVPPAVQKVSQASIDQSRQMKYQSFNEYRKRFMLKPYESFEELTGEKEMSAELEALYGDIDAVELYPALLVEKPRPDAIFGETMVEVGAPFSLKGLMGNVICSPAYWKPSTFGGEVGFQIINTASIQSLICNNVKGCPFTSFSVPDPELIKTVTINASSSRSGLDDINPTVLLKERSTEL"}, "[3]": {"test": "Inhibition of DMBA-induced preneoplastic lesions in mouse mammary gland organ culture at 10 ug/mL", "type": "functional"}}, "note": "pIC50: −log10 of the molar value."}
{"smiles": "CC(C)(O)[C@H](O)Cc1cc(/C=C/c2cc(O)cc(O)c2)ccc1O", "values": [{"measurement": "pIC50", "setting": "[1]", "value": 6.32}, {"measurement": "pIC50", "setting": "[2]", "value": 4.86}]}
{"smiles": "CC(C)=CCc1cc(/C=C/c2cc(O)cc(O)c2)ccc1O", "values": [{"measurement": "pIC50", "setting": "[1]", "value": 6.21}, {"measurement": "inhibition at 10 µg/mL", "setting": "[3]", "value": 7.3, "unit": "%"}, {"measurement": "pIC50", "setting": "[2]", "value": 5.02}]}
{"smiles": "CC(C)=CCc1cc(/C=C/c2cc(O)cc(O)c2)c(O)cc1O", "values": [{"measurement": "pIC50", "setting": "[1]", "value": 5.39}, {"measurement": "inhibition at 10 µg/mL", "setting": "[3]", "value": 0, "unit": "%"}, {"measurement": "pIC50", "setting": "[2]", "value": 4.44}]}
{"smiles": "C[C@@H]1O[C@@H](O[C@H]2Cc3c(O)cc(O)cc3O[C@@H]2c2ccc(O)cc2)[C@H](O)[C@H](O)[C@H]1O", "values": [{"measurement": "pIC50", "setting": "[1]", "value": 5.08}, {"measurement": "inhibition at 10 µg/mL", "setting": "[3]", "value": 0, "unit": "%"}, {"measurement": "pIC50", "setting": "[2]", "value": 4.71}]}
{"smiles": "Oc1cc(O)c2c(c1)O[C@H](c1ccc(O)c(O)c1)[C@@H](O)C2", "note": "[CIANIDANOL]", "values": [{"measurement": "pIC50", "setting": "[1]", "value": 4.44}, {"measurement": "inhibition at 10 µg/mL", "setting": "[3]", "value": 50, "unit": "%"}]}
{"smiles": "COc1cc(C(O)C(COC(=O)/C=C/c2ccc(O)cc2)Oc2c(OC)cc(/C=C/COC(=O)/C=C/c3ccc(O)cc3)cc2OC)ccc1O", "note": "(configuration not stated) [DADAHOL A]", "values": [{"measurement": "pIC50", "setting": "[1]", "value": "< 3.84"}, {"measurement": "pIC50", "setting": "[2]", "value": "< 3.84"}]}
{"smiles": "COc1cc(C(O)C(COC(=O)/C=C/c2ccc(O)cc2)Oc2ccc(/C=C/COC(=O)/C=C/c3ccc(O)cc3)cc2OC)ccc1O", "note": "(configuration not stated) [DADAHOL B]", "values": [{"measurement": "pIC50", "setting": "[1]", "value": "< 3.83"}, {"measurement": "pIC50", "setting": "[2]", "value": "< 3.83"}]}
{"smiles": "O=C1c2c(O)cc(O)cc2O[C@H](c2ccc(O)cc2O)[C@H]1O", "note": "[DIHYDROMORIN]", "values": [{"measurement": "pIC50", "setting": "[1]", "value": 4.17}, {"measurement": "inhibition at 10 µg/mL", "setting": "[3]", "value": 81.5, "unit": "%"}, {"measurement": "pIC50", "setting": "[2]", "value": "< 4.00"}]}
{"smiles": "CC1OC(OC2C(=O)c3c(O)cc(O)cc3OC2c2ccc(O)cc2)C(O)C(O)C1O", "note": "(configuration not stated) [ENGELETIN]", "values": [{"measurement": "pIC50", "setting": "[1]", "value": "< 3.64"}, {"measurement": "pIC50", "setting": "[2]", "value": "< 3.64"}]}
{"smiles": "Oc1ccc([C@H]2Oc3cc(O)cc(O)c3C[C@H]2O)cc1", "note": "[EPIAFZELECHIN (2R,3R)(-)]", "values": [{"measurement": "inhibition at 10 µg/mL", "setting": "[3]", "value": 81.5, "unit": "%"}, {"measurement": "pIC50", "setting": "[2]", "value": 4.16}]}
{"smiles": "C/C(=C/Cc1c(O)ccc(C(=O)/C=C/c2ccc(O)cc2)c1O)COC(=O)/C=C/c1ccc(O)cc1", "note": "[GEMICHALCONE B]", "values": [{"measurement": "pIC50", "setting": "[1]", "value": 4.85}, {"measurement": "inhibition at 10 µg/mL", "setting": "[3]", "value": 33.3, "unit": "%"}, {"measurement": "pIC50", "setting": "[2]", "value": 4.42}]}
{"smiles": "C/C(=C\\Cc1c(O)ccc(C(=O)/C=C/c2ccc(O)cc2)c1O)COC(=O)/C=C/c1ccc(O)cc1", "note": "[ISOGEMICHALCONE B]", "values": [{"measurement": "pIC50", "setting": "[1]", "value": 4.93}, {"measurement": "pIC50", "setting": "[2]", "value": 4.82}]}
{"smiles": "Oc1cc(O)cc(-c2cc3ccc(O)cc3o2)c1", "note": "[MORACIN M]", "values": [{"measurement": "pIC50", "setting": "[1]", "value": 6.30}, {"measurement": "inhibition at 10 µg/mL", "setting": "[3]", "value": 33.3, "unit": "%"}, {"measurement": "pIC50", "setting": "[2]", "value": 4.65}]}
{"smiles": "O=c1cc(-c2ccc(O)cc2O)oc2cc(O)cc(O)c12", "note": "[NORARTOCARPETIN]", "values": [{"measurement": "pIC50", "setting": "[1]", "value": 4.85}, {"measurement": "inhibition at 10 µg/mL", "setting": "[3]", "value": 85.2, "unit": "%"}, {"measurement": "pIC50", "setting": "[2]", "value": "< 4.00"}]}
{"smiles": "Oc1cc(O)cc(/C=C/c2ccc(O)cc2O)c1", "note": "[OXYRESVERATROL]", "values": [{"measurement": "pIC50", "setting": "[1]", "value": 5.85}, {"measurement": "inhibition at 10 µg/mL", "setting": "[3]", "value": 33.3, "unit": "%"}, {"measurement": "pIC50", "setting": "[2]", "value": 3.96}]}
{"smiles": "Oc1ccc(/C=C/c2cc(O)cc(O)c2)cc1", "note": "[RESVERATROL]", "values": [{"measurement": "inhibition at 10 µg/mL", "setting": "[3]", "value": 87.5, "unit": "%"}]}
{"smiles": "O=C1CC(c2ccc(O)cc2O)Oc2cc(O)cc(O)c21", "note": "(configuration not stated) [STEPPOGENIN]", "values": [{"measurement": "pIC50", "setting": "[1]", "value": 5.23}, {"measurement": "inhibition at 10 µg/mL", "setting": "[3]", "value": 66.7, "unit": "%"}, {"measurement": "pIC50", "setting": "[2]", "value": 4.33}]}
